Assay results as given in patent publication US20240158392A1 (Janssen Biotech, Inc., priority 2021, published 2024).

What follows are molecules tested against SIK2 (Homo sapiens, UniProt Q9H0K1) (assay: SIK2 Enzymatic Assay High Version 2 (High ATP)). Settings: not given.
Type: biochemical
Procedure, shortened: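 At room temperature, enzyme (6 nM, 2× final) was preincubated with compound for 30 min, then 6 mM ATP and 400 μM HDAC5tide (both 2× final) were added for 2 h. ADP formed was measured by ADP-Glo Max (2 h reagent, 1 h detection) using luminescence.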

Sequence of SIK2 (Q9H0K1 whole entry, species assumed): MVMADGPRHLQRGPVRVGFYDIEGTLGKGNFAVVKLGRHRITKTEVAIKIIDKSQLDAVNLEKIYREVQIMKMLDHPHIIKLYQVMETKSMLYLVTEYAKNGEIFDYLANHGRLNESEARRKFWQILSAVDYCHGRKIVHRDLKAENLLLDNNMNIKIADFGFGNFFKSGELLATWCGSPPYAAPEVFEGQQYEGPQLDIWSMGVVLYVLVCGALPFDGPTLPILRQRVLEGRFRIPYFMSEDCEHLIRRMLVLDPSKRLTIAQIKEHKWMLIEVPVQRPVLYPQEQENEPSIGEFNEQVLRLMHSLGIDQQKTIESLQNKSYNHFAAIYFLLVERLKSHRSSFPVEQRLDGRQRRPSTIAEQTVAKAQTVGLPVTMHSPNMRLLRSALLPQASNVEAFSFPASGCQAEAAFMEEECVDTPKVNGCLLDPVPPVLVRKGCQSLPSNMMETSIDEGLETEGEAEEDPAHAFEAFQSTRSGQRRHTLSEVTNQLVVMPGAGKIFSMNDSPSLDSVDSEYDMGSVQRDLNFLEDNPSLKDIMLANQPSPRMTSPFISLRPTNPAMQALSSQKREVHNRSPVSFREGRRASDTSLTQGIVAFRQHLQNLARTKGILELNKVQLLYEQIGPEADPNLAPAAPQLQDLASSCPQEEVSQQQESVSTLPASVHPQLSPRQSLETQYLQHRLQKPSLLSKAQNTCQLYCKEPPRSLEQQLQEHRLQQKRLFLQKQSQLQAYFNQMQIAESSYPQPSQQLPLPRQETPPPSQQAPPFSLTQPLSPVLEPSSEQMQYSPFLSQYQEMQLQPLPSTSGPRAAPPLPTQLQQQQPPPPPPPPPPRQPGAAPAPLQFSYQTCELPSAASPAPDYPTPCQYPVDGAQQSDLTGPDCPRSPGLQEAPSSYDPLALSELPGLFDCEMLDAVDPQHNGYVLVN

Point of comparison: `CCNC(=O)c1cnc(Nc2cc3cc(-c4cc(C)ncc4O[C@H]4C[C@H]5COC[C@@H](C4)N5)ccn3n2)cn1` [Example 386, N-ethyl-5-[[5-[2-methyl-5-[[(1S,5R,7s)-3-oxa-9-azabicyclo[3.3.1]nonan-7-yl]oxy]-4-pyridyl]pyrazolo[1,5-a]pyridin-2-yl]amino]pyrazine-2-carboxamide], IC50 0.00131 µM. Against it:
- Cc1cc(-c2ccn3nc(Nc4ccc(F)cn4)cc3c2)c(O[C@H]2C[C@H]3COC[C@@H](C2)N3C)cn1 [Example 126] — lower, < 0.000847 µM
- Cc1cc(-c2ccn3nc(Nc4ccc(C(=O)NC5CCOCC5)cn4)cc3c2)c(O[C@H]2C[C@H]3COC[C@@H](C2)N3)cn1 [Example 388, 6-[[5-[2-methyl-5-[[(1S,5R,7s)-3-oxa-9-azabicyclo[3.3.1]nonan-7-yl]oxy]-4-pyridyl]pyrazolo[1,5-a]pyridin-2-yl]amino]-N-tetrahydropyran-4-yl-pyridine-3-carboxamide] — within 1.5-fold, 0.00103 µM

Same assay, conditions: enzyme 6 nM, 6 mM ATP and 400 μM HDAC5tide (each 2× final concentration); 30 minutes pre-incubation, 2 hours; ADP-Glo Max luminescence; read-out: SIK2 high ATP IC50 (μM) (Test Example 2)

Point of comparison: `CO[C@H]1CN(C)C[C@@H]1COc1cnc(C)cc1-c1ccn2nc(NC(=O)C3CC3)cc2c1` (racemic) [Example 571, (3RS, 4RS)—N-[5-[5-[(4-methoxy-1-methyl-pyrrolidin-3-yl)methoxy]-2-methyl-4-pyridyl]pyrazolo[1,5-a]pyridin-2-yl]cyclopropanecarboxamide], IC50 0.165 µM. Against it:
- Cc1cc(-c2ccn3nc(NC(=O)[C@@H]4C[C@H]4C)cc3c2)c(OC[C@@]23CN[C@@H](CO2)C3)cn1 [Example 234, (1R,2R)-2-methyl-N-[5-[2-methyl-5-[[(1R,4R)-5-oxa-2-azabicyclo[2.2.1]heptan-4-yl]methoxy]-4-pyridyl]pyrazolo[1,5-a]pyridin-2-yl]cyclopropanecarboxamide] — 20-fold lower, 0.00837 µM
- Cc1cc(Nc2cc3cc(-c4cc(OCC(F)(F)F)ncc4OCC(C)(C)C#N)ccn3n2)nc(C)n1 [Example 659, 3-[[4-[2-[(2,6-dimethylpyrimidin-4-yl)amino]pyrazolo[1,5-a]pyridin-5-yl]-6-(2,2,2-trifluoroethoxy)-3-pyridyl]oxy]-2,2-dimethyl-propanenitrile] — within 1.5-fold, 0.157 µM
- Cc1cc(-c2ccn3nc(Nc4cc(C)c(=O)n(C)n4)cc3c2)c(OC2CCC(S(C)(=O)=O)CC2)cn1 (single isomer, unassigned) [Example 306, 2,4-dimethyl-6-((5-(2-methyl-5-(((1r,4r)-4-(methylsulfonyl)cyclohexyl)oxy)pyridin-4-yl)pyrazolo[1,5-a]pyridin-2-yl)amino)pyridazin-3(2H)-one] — 4.6-fold lower, 0.0358 µM
- Cc1cc(-c2ccn3nc(Nc4cc(C)nc(C)n4)cc3c2)c(O[C@H]2CC[C@H](C(N)=O)CC2)cn1 [Example 343, 4-[[4-[2-[(2,6-dimethylpyrimidin-4-yl)amino]pyrazolo[1,5-a]pyridin-5-yl]-6-methyl-3-pyridyl]oxy]cyclohexanecarboxamide] — 4.4-fold lower, 0.0376 µM
- CO[C@H]1CNC[C@@H]1COc1cnc(C)cc1-c1ccn2nc(NC(=O)C3CC3)cc2c1 (relative stereo) [Example 458, Trans-*R, *R—N-[5-[5-[(4-methoxypyrrolidin-3-yl)methoxy]-2-methyl-4-pyridyl]pyrazolo[1,5-a]pyridin-2-yl]cyclopropanecarboxamide] — 30-fold lower, 0.00555 µM
- Cc1cc(-c2ccc3nc(NC(=O)C4CC4)cn3c2)c(O[C@H]2CC[C@H](O)CC2)cn1 [Example 504, N-[6-[5-(4-hydroxycyclohexoxy)-2-methyl-4-pyridyl]imidazo[1,2-a]pyridin-2-yl]cyclopropanecarboxamide] — lower, < 0.000847 µM
- CC(C)(C#N)COc1cnc(Cl)cc1-c1ccn2nc(NC(=O)C3CC3)cc2c1 [Example 666, N-[5-[2-chloro-5-(2-cyano-2-methyl-propoxy)-4-pyridyl]pyrazolo[1,5-a]pyridin-2-yl]cyclopropanecarboxamide] — 3-fold lower, 0.0555 µM
- CC#Cc1cc(-c2ccn3nc(NC(=O)C4CC4)cc3c2)c(OCC2(N)COC2)cn1 [Example 433, N-[5-[5-[(3-aminooxetan-3-yl)methoxy]-2-prop-1-ynyl-4-pyridyl]pyrazolo[1,5-a]pyridin-2-yl]cyclopropanecarboxamide] — lower, < 0.000847 µM
